Experimental data reported in patent US9834525B2, “Inhibitors of paxillin function and related compositions and methods” (UNIVERSITY OF TENNESSEE RESEARCH FOUNDATION, priority 2015, dated 2017).
“Also recorded” adds a separate entry of the source.

Key:
[1] = tested on: paxillin (pY118); assay: Western blot of VEGF-induced paxillin Y118 phosphorylation in REC; assay type: cell-based, human
Description: REC, Mel 270, OMM 2.5 under Hepatocyte Growth Factor (HGF) or Vascular Endothelial Growth Factor (VEGF) stimulation conditions: Cell lysates were collected in RIPA lysis buffer (50 mM Tris-HCl, pH 7.4, 150 mM NaCl, 2 mM EDTA, 1% Nonidet P-40, 0.1% SDS) with protease 1× inhibitor cocktail (Roche; Indianapolis, Ind.). Lysates were kept on ice and centrifuged at 10,000×g×10 minutes and total protein was measured using the BCA assay (Pierce, Rockford, Ill.). Protein samples were mixed with 4×LDS loading buffer with 2.5% 2-mercaptoethanol (Sigma-Aldrich), heated to 70° C. for 10 minutes, and loaded on NuPAGE 4-12% Bis-Tris gel (Invitrogen, Carlsbad, Calif.). Immunoblotting was performed with nitrocellulose membranes (Bio-Rad, Hercules, Calif.) at 170-mA start and 110-mA end at 25 V for two hours in NuPAGE transfer buffer (Invitrogen) containing 20% methanol. Membranes were blocked using Odyssey blocking buffer (LI-COR; Lincoln, Nebr.) for one hour at room temperature with gentle shaking Membranes were then incubated at 4° C. with specific primary antibodies (1:1000) overnight. Cellular protein was normalized using rabbit-GAPDH or mouse-α-Tubulin [1:20,000] (Cell Signaling, Danvers, Mass.; LI-COR, respectively). Secondary antibodies (IRDye 800CW goat anti-rabbit and IRDye 680LT goat anti-mouse) [1:10,000] were incubated in the dark at room temperature for 45 minutes. Dual-channel infrared scan and quantitation of immunoblots were conducted using the ODYSSEY Sa infrared imaging system with Image Studio (Ver. 3.1.4) (LI-COR).
The α4 subunit of the cytoplasmic tail of VLA-4 interacts with the cytoskeletal adaptor paxillin, merging intracellular signaling events that drive cellular proliferation and migration (FIG. 13). Compound (II-4) inhibits phosphorylation of paxillin at Y118 (pY118) in the LD-region that interacts with the α4 subunit of VLA-4. To confirm the inhibition of pY118 of paxillin after use of compound (II-4) retinal endothelial cells (REC) were activated with Vascular Endothelial Growth Factor (VEGF) at 50 ng/mL in the presence or absence (vehicle) of compound (II-4) at a concentration of […] for 4-hrs. […] VEGF-induced pY118 was prevented by treatment with compound (II-4) [VEGF-REC treatment versus untreated, *p<0.005; VEGF-induced versus compound (II-4) treatment, **p<0.05—FIG. 13C].
To gain insight into the mechanistic basis for this phenotype, the effect of compound (II-4) on the Src/FAK/paxillin/ERK signalsome in RECs under VEGF was examined. […] Next, characterization of the potential of compound (II-4) to affect FA disassembly through inactivation of ERK was explored. […]
FIG. 13: Targeting the alpha-4 subunit of VLA-4 signaling through inhibition of paxillin. […] Phosphorylation measured by Western Blot. […]

[2] = tested on: metastatic-UM cell; assay: CFSE cellular proliferation, metastatic UM; assay type: cell-based, human; details: metastatic-UM cells; 96 hrs culture, 1 μM for the last 24 hrs
Description: Harvested cells were resuspended at a concentration of 1.0×10^6 cells/mL in warm PBS/1% FBS. Cells were labeled with […] (Invitrogen) for 5 minutes at 37° C. then quenched on cold growth media (final volume 20 mL) for 10 minutes, twice. Cultured unlabeled cells were used as controls.
To test the hypothesis that inhibition of paxillin will reduce cellular proliferation UM cell lines were labeled with carboxyfluorescein succunimidyl ester (CFSE), a cell tracking dye, and cultured for 96 hrs. A group of cells received treatment with compound (II-4) for the last 24 hours. Maximum CFSE fluorescence was controlled using labeled cells prior culture −0 hr. Negative control was established using unlabeled cells cultured in parallel. Histograms in FIG. 15D show 96 hrs cultured cells divided with a 1-log shift or reduction in CFSE intensity. […] Cell proliferation was not affected in the 92.1 cell line. […]
FIG. 15: The paxillin inhibitor Compound (II-4) selectively affects cellular proliferation of primary UM cells that become metastatic. […] Unlabeled cells were used to control fluorescence. […] B. Quantitation of experiment +/−SD including primary UM that becomes metastatic (Mel 270), metastatic (OMM 2.1) and primary (92.1) UM cells. *P=0.0007 and **P=0.0005. […] Quantitation of VLA-4 protein levels +/−SD from n=3. […]

Structure (SMILES): COc1cc(C2OC(=O)Nc3c2ccc2ccccc32)cc(OC)c1OC (stereo not drawn) [compound II-4]
- VEGF-induced PaxY118 phosphorylation (FIG. 20) ([1]; REC under VEGF, compound (II-4) 500 nM, SU6656 1 μM): able to inhibit; also recorded: reduced
- VEGF-induced paxillin phosphorylation (pY118) ([1]; REC, VEGF 50 ng/mL, 4 hrs, inhibitor 1 μM (printed 104)): prevented; also recorded: reduced
- cell proliferation (CFSE) [2]: reduction was not observed
